Results from patent publication US20240109900A1, “AZABICYCLIC SHP2 INHIBITORS” (IRBM S.P.A., priority 2021, published 2024).

Legend:
[1] = system: ERK phosphorylation in KYSE-520 cells; test: Phospho-ERK cellular assay; type: cell-based; conditions: Homo sapiens, KYSE-520, 2 h, KYSE-520 cells, 2 h at 37° C., phospho-ERK1/2 (Thr202/Tyr204) TR-FRET; read-out: PERK IC50
In short: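 TR-FRET read-out of ERK1/2 Thr202/Tyr204 phosphorylation was taken after overnight antibody incubation at room temperature. Before that, KYSE-520 cells were treated 2 h at 37 °C with compound dilutions and lysed 30 min. Percent inhibition relative to vehicle and cell-free wells was fitted four-parametrically to give IC50.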

[2] = molecular target: SHP-2 enzyme (Met1-Leu525) (Homo sapiens (Human), UniProt Q06124); test: SHP2 inhibition enzymatic assay; type: biochemical; conditions: 0.5 nM SHP-2 activated by 500 nM IRS1 peptide, 75 μM DiFMUP substrate; read-out: SHP2wt-IC50
Chain of SHP-2 enzyme (Met1-Leu525) (Q06124 1-525): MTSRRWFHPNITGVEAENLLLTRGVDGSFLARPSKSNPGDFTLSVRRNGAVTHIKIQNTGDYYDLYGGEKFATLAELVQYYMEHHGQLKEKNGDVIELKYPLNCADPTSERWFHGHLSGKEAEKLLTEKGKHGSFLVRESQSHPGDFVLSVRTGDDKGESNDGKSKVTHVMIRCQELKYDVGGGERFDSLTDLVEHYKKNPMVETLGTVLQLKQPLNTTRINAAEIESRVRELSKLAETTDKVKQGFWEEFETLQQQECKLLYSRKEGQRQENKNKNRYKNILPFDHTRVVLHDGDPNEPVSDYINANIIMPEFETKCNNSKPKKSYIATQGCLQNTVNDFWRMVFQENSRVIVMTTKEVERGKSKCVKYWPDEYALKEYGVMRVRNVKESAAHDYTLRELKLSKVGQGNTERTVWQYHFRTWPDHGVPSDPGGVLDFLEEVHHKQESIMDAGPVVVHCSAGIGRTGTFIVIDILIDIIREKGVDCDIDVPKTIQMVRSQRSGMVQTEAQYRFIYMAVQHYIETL
In short: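 Compounds were preincubated 30 min with 0.5 nM SHP-2 (Met1-Leu525) plus 500 nM IRS1 activating peptide (pH 7.2 HEPES, 5 mM DTT), then 75 μM DiFMUP substrate reacted 30 min at room temperature. After bpV quench, DiFMUP fluorescence gave % inhibition; four-parameter logistic fit yielded IC50.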

| IC50 [1] [nM] | IC50 [2] [nM] | SMILES |
| --- | --- | --- |
| < 1000 | < 500 | NC[C@]1(c2ccccc2F)[C@@H]2CCN(c3cnc4c(-c5cccc(-c6cnccn6)c5Cl)n[nH]c4n3)C[C@@H]21 [Example 158, ((1S,6R,7R)-3-(3-(2-chloro-3-(pyrazin-2-yl)phenyl)-1H-pyrazolo[3,4-b]pyrazin-6-yl)-7-(2-fluorophenyl)-3-azabicyclo[4.1.0]heptan-7-yl)methanamine] |
| < 1000 | < 500 | NC[C@]1(c2ccccc2F)[C@@H]2CCN(c3cnc4c(-c5cccc(Br)c5Cl)n[nH]c4n3)C[C@@H]21 [Example 162, ((1S,6R,7R)-3-(3-(3-bromo-2-chlorophenyl)-1H-pyrazolo[3,4-b]pyrazin-6-yl)-7-(2-fluorophenyl)-3-azabicyclo[4.1.0]heptan-7-yl)methanamine] |
| < 1000 | < 500 | NC[C@]1(c2ccccc2F)[C@@H]2CCN(c3cnc4c(-c5ccc6nccnc6c5Cl)n[nH]c4n3)C[C@@H]21 [Example 167, ((1S,6R,7R)-3-(3-(5-chloroquinoxalin-6-yl)-1H-pyrazolo[3,4-b]pyrazin-6-yl)-7-(2-fluorophenyl)-3-azabicyclo[4.1.0]heptan-7-yl)methanamine] |
| < 1000 | < 500 | NC[C@]1(c2ccccc2F)[C@@H]2CCN(c3cnc4c(-c5cccc(-c6ncco6)c5Cl)n[nH]c4n3)C[C@@H]21 [Example 168, ((1S,6R,7R)-3-(3-(2-chloro-3-(oxazol-2-yl)phenyl)-1H-pyrazolo[3,4-b]pyrazin-6-yl)-7-(2-fluorophenyl)-3-azabicyclo[4.1.0]heptan-7-yl)methanamine] |
| < 1000 | < 500 | NC[C@]1(c2ccccc2F)[C@@H]2CCN(c3cnc4c(-c5ccnc(-c6ncco6)c5Cl)n[nH]c4n3)C[C@@H]21 [Example 170, ((1S,6R,7R)-3-(3-(3-chloro-2-(oxazol-2-yl)pyridin-4-yl)-1H-pyrazolo[3,4-b]pyrazin-6-yl)-7-(2-fluorophenyl)-3-azabicyclo[4.1.0]heptan-7-yl)methanamine] |
| < 1000 | < 500 | Cc1c(-c2n[nH]c3nc(N4CC[C@@H]5[C@H](C4)[C@@]5(CN)c4ccccc4F)cnc23)ccc2ncccc12 [Example 172, ((1S,6R,7R)-7-(2-fluorophenyl)-3-(3-(5-methylquinolin-6-yl)-1H-pyrazolo[3,4-b]pyrazin-6-yl)-3-azabicyclo[4.1.0]heptan-7-yl)methanamine] |
| < 1000 | < 500 | NC[C@]1(c2ccccc2F)[C@@H]2CCN(c3cnc4c(-c5ccncc5Cl)n[nH]c4n3)C[C@@H]21 [Example 176, ((1S,6R,7R)-3-(3-(3-chloropyridin-4-yl)-1H-pyrazolo[3,4-b]pyrazin-6-yl)-7-(2-fluorophenyl)-3-azabicyclo[4.1.0]heptan-7-yl)methanamine] |

More lines, now with the values behind:

| SMILES | IC50 [1] [nM] | IC50 [2] [nM] |
| --- | --- | --- |
| Cc1c(-c2c[nH]c3nc(N4CC[C@@H]5[C@H](C4)[C@@]5(CN)c4ccccc4F)cnc23)ccc2nn(C)cc12 [Example 157, ((1S,6R,7R)-3-(7-(2,4-dimethyl-2H-indazol-5-yl)-5H-pyrrolo[2,3-b]pyrazin-3-yl)-7-(2-fluorophenyl)-3-azabicyclo[4.1.0]heptan-7-yl)methanamine] | < 1000 | < 500 |
| NC[C@]1(c2ccccc2F)[C@@H]2CCN(c3cnc4c(-c5ccc(CO)c6ncccc56)n[nH]c4n3)C[C@@H]21 [Example 159, (5-(6-((1S,6R,7R)-7-(aminomethyl)-7-(2-fluorophenyl)-3-azabicyclo[4.1.0]heptan-3-yl)-1H-pyrazolo[3,4-b]pyrazin-3-yl)quinolin-8-yl)methanol] | < 1000 | < 500 |
| NC[C@]1(c2ccccc2F)[C@@H]2CCN(c3cnc4c(-c5ccc(OC(F)F)c6ncccc56)n[nH]c4n3)C[C@@H]21 [Example 160, ((1S,6R,7R)-3-(3-(8-(difluoromethoxy)quinolin-5-yl)-1H-pyrazolo[3,4-b]pyrazin-6-yl)-7-(2-fluorophenyl)-3-azabicyclo[4.1.0]heptan-7-yl)methanamine] | < 1000 | < 500 |
| Cc1ccc(-c2n[nH]c3nc(N4CC[C@@H]5[C@H](C4)[C@@]5(CN)c4ccccc4F)cnc23)c2ccnn12 [Example 161, ((1S,6R,7R)-7-(2-fluorophenyl)-3-(3-(7-methylpyrazolo[1,5-a]pyridin-4-yl)-1H-pyrazolo[3,4-b]pyrazin-6-yl)-3-azabicyclo[4.1.0]heptan-7-yl)methanamine] | < 1000 | < 500 |
| NC[C@]1(c2ccccc2F)[C@@H]2CCN(c3cnc4c(-c5ccnc(N)n5)n[nH]c4n3)C[C@@H]21 [Example 163, 4-(6-((1S,6R,7R)-7-(aminomethyl)-7-(2-fluorophenyl)-3-azabicyclo[4.1.0]heptan-3-yl)-1H-pyrazolo[3,4-b]pyrazin-3-yl)pyrimidin-2-amine] | < 1000 | < 500 |
| CCOc1ccc(-c2n[nH]c3nc(N4CC[C@@H]5[C@H](C4)[C@@]5(CN)c4ccccc4F)cnc23)c2cccnc12 [Example 164, ((1S,6R,7R)-3-(3-(8-ethoxyquinolin-5-yl)-1H-pyrazolo[3,4-b]pyrazin-6-yl)-7-(2-fluorophenyl)-3-azabicyclo[4.1.0]heptan-7-yl)methanamine] | < 1000 | < 500 |
| COC(C)c1ccc(-c2n[nH]c3nc(N4CC[C@@H]5[C@H](C4)[C@@]5(CN)c4ccccc4F)cnc23)c2cccnc12 (stereo partly drawn) [Example 165, ((1S,6R,7R)-7-(2-fluorophenyl)-3-(3-(8-(1-methoxyethyl)quinolin-5-yl)-1H-pyrazolo[3,4-b]pyrazin-6-yl)-3-azabicyclo[4.1.0]heptan-7-yl)methanamine] | < 1000 | < 500 |
| COc1cccc2c(-c3n[nH]c4nc(N5CC[C@@H]6[C@H](C5)[C@@]6(CN)c5ccccc5F)cnc34)ccnc12 [Example 166, ((1S,6R,7R)-7-(2-fluorophenyl)-3-(3-(8-methoxyquinolin-4-yl)-1H-pyrazolo[3,4-b]pyrazin-6-yl)-3-azabicyclo[4.1.0]heptan-7-yl)methanamine] | < 1000 | < 500 |
| NC[C@]1(c2ccccc2F)[C@@H]2CCN(c3cnc4c(N5CCCc6ncccc65)n[nH]c4n3)C[C@@H]21 [Example 169, ((1S,6R,7R)-3-(3-(3,4-dihydro-1,5-naphthyridin-1(2H)-yl)-1H-pyrazolo[3,4-b]pyrazin-6-yl)-7-(2-fluorophenyl)-3-azabicyclo[4.1.0]heptan-7-yl)methanamine] | < 1000 | < 500 |
| Cc1cc2ncccc2cc1-c1n[nH]c2nc(N3CC[C@@H]4[C@H](C3)[C@@]4(CN)c3ccccc3F)cnc12 [Example 171, ((1S,6R,7R)-7-(2-fluorophenyl)-3-(3-(7-methylquinolin-6-yl)-1H-pyrazolo[3,4-b]pyrazin-6-yl)-3-azabicyclo[4.1.0]heptan-7-yl)methanamine] | < 1000 | < 500 |
| Cc1cc(-c2n[nH]c3nc(N4CC[C@@H]5[C@H](C4)[C@@]5(CN)c4ccccc4F)cnc23)cc2cccnc12 [Example 173, ((1S,6R,7R)-7-(2-fluorophenyl)-3-(3-(8-methylquinolin-6-yl)-1H-pyrazolo[3,4-b]pyrazin-6-yl)-3-azabicyclo[4.1.0]heptan-7-yl)methanamine] | < 1000 | < 500 |
| NC[C@]1(c2ccccc2F)[C@@H]2CCN(c3cnc4c(-c5cc(F)c6ncccc6c5)n[nH]c4n3)C[C@@H]21 [Example 174, ((1S,6R,7R)-7-(2-fluorophenyl)-3-(3-(8-fluoroquinolin-6-yl)-1H-pyrazolo[3,4-b]pyrazin-6-yl)-3-azabicyclo[4.1.0]heptan-7-yl)methanamine] | < 1000 | < 500 |
| NC[C@]1(c2ccccc2F)[C@@H]2CCN(c3cnc4c(-c5cc6cccnc6cc5F)n[nH]c4n3)C[C@@H]21 [Example 175, ((1S,6R,7R)-7-(2-fluorophenyl)-3-(3-(7-fluoroquinolin-6-yl)-1H-pyrazolo[3,4-b]pyrazin-6-yl)-3-azabicyclo[4.1.0]heptan-7-yl)methanamine] | < 1000 | < 500 |
| Cc1c(-c2n[nH]c3nc(N4CC[C@@H]5[C@H](C4)[C@@]5(CN)c4cccc(F)c4F)cnc23)ccc2nn(C)cc12 [Example 177, ((1S,6R,7R)-7-(2,3-difluorophenyl)-3-(3-(2,4-dimethyl-2H-indazol-5-yl)-1H-pyrazolo[3,4-b]pyrazin-6-yl)-3-azabicyclo[4.1.0]heptan-7-yl)methanamine] | < 1000 | < 500 |
| NC[C@]1(c2cccc(F)c2F)[C@@H]2CCN(c3cnc4c(-c5ccnc(N)c5Cl)n[nH]c4n3)C[C@@H]21 [Example 178, 4-(6-((1S,6R,7R)-7-(aminomethyl)-7-(2,3-difluorophenyl)-3-azabicyclo[4.1.0]heptan-3-yl)-1H-pyrazolo[3,4-b]pyrazin-3-yl)-3-chloropyridin-2-amine] | < 1000 | < 500 |
| Cc1c(-c2n[nH]c3nc(N4CC[C@@H]5[C@H](C4)[C@@]5(CN)c4ncccc4F)cnc23)ccc2nn(C)cc12 [Example 179, ((1S,6R,7S)-3-(3-(2,4-dimethyl-2H-indazol-5-yl)-1H-pyrazolo[3,4-b]pyrazin-6-yl)-7-(3-fluoropyridin-2-yl)-3-azabicyclo[4.1.0]heptan-7-yl)methanamine] | < 1000 | < 500 |
